Source: PubChem BioAssay (NCI)
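A five-concentration, 48-hour dose response in 96-well plates underlies each endpoint, interpolated linearly between surrounding concentrations. Here, GI50 denotes the concentration required for 50% inhibition of growth. TGI marks complete inhibition of growth.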

Assays:
Experiment in all cases: inhibition of tumour cell growth, NCI panel, 48 h
[1] = tested on: OVCAR-5 ovarian
[2] = tested on: SK-MEL-28 melanoma
[3] = tested on: SF-295 CNS
[4] = tested on: DMS 114 small cell lung
[5] = tested on: SW-620 colon
[6] = tested on: SNB-19 CNS
[7] = tested on: K-562 leukemia
[8] = tested on: SN12C renal
[9] = tested on: EKVX NSCLC
[10] = tested on: TK-10 renal

SMILES | TGI [1] | TGI [2] | TGI [3] | TGI [4] | TGI [5] | TGI [6] | TGI [7] | TGI [8] | TGI [9] | TGI [10] | GI50 [1] | GI50 [2] | GI50 [3] | GI50 [10] | GI50 [5] | GI50 [6] | GI50 [7] | GI50 [8] | GI50 [9]
CSc1nc2c(ncn2C2OCC(O)C(O)C2O)c(=O)n1C (stereo not given) | > 100 µM | > 100 µM | > 100 µM | > 100 µM | > 100 µM | > 100 µM | > 100 µM | > 100 µM | > 100 µM | – | – | – | – | – | – | – | – | – | –
O=C(Nc1cccc2c1[nH]c1c(-c3ccccc3)nccc12)c1ccccc1[N+](=O)[O-] | 63.2 µM | > 100 µM | 88 µM | – | > 100 µM | > 100 µM | > 100 µM | > 100 µM | > 100 µM | > 100 µM | – | – | – | – | – | – | – | – | –
CN1CCN(Cc2ccc(NC(=O)c3cccc(C#Cc4cnc(N)c5ncccc45)c3F)cc2C(F)(F)F)CC1 | 1.52 µM | 1.59 µM | 14.7 µM | – | 1.71 µM | 3.72 µM | 0.733 µM | 1.59 µM | 13.7 µM | 12.9 µM | 0.722 µM | 0.848 µM | 7.06 µM | 5.67 µM | 0.62 µM | 1.41 µM | 0.005 µM | 0.817 µM | 6.57 µM
O=C1C=CC(=O)c2c1ccc1c3ccccc3n(-c3ccccc3[N+](=O)[O-])c21 | 37.5 µM | 50.8 µM | > 56.7 µM | – | > 100 µM | 29.3 µM | > 100 µM | > 71.5 µM | 23.7 µM | 5.89 µM | – | – | – | – | – | – | – | – | –
COc1ccc2[nH]c3c(C)c4ccnc(NCCCN(C)CCCNc5ccc6ncn7c8ccccc8c(=O)c5c67)c4c(C)c3c2c1 | 5.2 µM | 21.9 µM | 1.85 µM | – | 25 µM | 3.42 µM | 4.25 µM | 3.38 µM | 2.48 µM | 5.49 µM | – | – | – | – | – | – | – | – | –
COc1cccc(NC(=O)C(=O)C(C(=O)c2ccccc2F)C2OC(=O)c3ccccc32)c1 (stereo not given) | > 100 µM | > 100 µM | > 100 µM | – | > 100 µM | > 100 µM | > 100 µM | > 100 µM | > 100 µM | > 100 µM | – | – | – | – | – | – | – | – | –
COc1cc2c(cc1OC)C(=O)/C(=C/c1cc(OC)c(OC)c(OC)c1)C2 | > 100 µM | > 100 µM | > 100 µM | – | – | > 100 µM | > 100 µM | > 100 µM | – | – | – | – | – | – | – | – | – | – | –
O=C1C(Cl)N(c2cccc([N+](=O)[O-])c2)C1c1c[nH]c2ccccc12 (stereo not given) | 37.4 µM | 73.5 µM | 35.1 µM | 47 µM | > 100 µM | 57.8 µM | 64.1 µM | > 100 µM | 96.8 µM | 59.4 µM | – | – | – | – | – | – | – | – | –
COC1(O)c2cccc(Cl)c2C(=O)N1C1(C(N)=O)CCCCC1 (stereo not given) | > 100 µM | > 100 µM | > 100 µM | > 100 µM | > 100 µM | > 100 µM | > 100 µM | > 100 µM | > 100 µM | – | – | – | – | – | – | – | – | – | –
NC12CCC(CC1=O)C2 (stereo not given) | > 100 µM | > 100 µM | > 100 µM | – | > 100 µM | – | > 100 µM | > 100 µM | > 100 µM | > 100 µM | – | – | – | – | – | – | – | – | –
O=Cc1ccc(CCl)cc1 | 38.8 µM | 32.9 µM | 32 µM | 23.5 µM | 52.1 µM | 29.4 µM | > 100 µM | – | > 100 µM | 45.5 µM | – | – | – | – | – | – | – | – | –
